Data reported in PMC6364417, “Kinase inhibitor library screening identifies synergistic drug combinations effective in sensitive and resistant melanoma cells” (Journal of Experimental & Clinical Cancer Research : CR, 2019).

Columns and labels:
Assay in all cases: Kinase inhibitor library screening, PrestoBlue cell viability, 1 or 10 μM, 72 h
501Mel cells (parental) = settings: 501Mel Parental
How it was run: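 Normalised to untreated controls, viability percentages came from PrestoBlue measured on a microplate reader following 72 h incubation with drug. Each line was assayed at least twice.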

[1] = tested on: 501Mel-GP cells (Dabrafenib-resistant); settings: 501Mel GP
[2] = tested on: 501Mel-XP cells (Vemurafenib-resistant); settings: 501Mel XP
A375 cells (parental) = settings: A375 Parental
[3] = tested on: A375-GP cells (Dabrafenib-resistant); settings: A375 GP
[4] = tested on: A375-XP cells (Vemurafenib-resistant); settings: A375 XP
IGR37 cells (parental) = settings: IGR37 Parental
[5] = tested on: IGR37-GP cells (Dabrafenib-resistant); settings: IGR37 GP
[6] = tested on: IGR37-XP cells (Vemurafenib-resistant); settings: IGR37 XP

What does the source list for CC(=O)NCC(=O)N1[C@@H]2CC[C@H]1c1ccc(Nc3ncc(C(F)(F)F)c(NC4CCC4)n3)cc12 [PF-03814735]?
cell viability (kinase inhibitor library screening) (501Mel cells (parental); 1μΜ, 72 h): 82.8%; cell viability (kinase inhibitor library screening) (501Mel cells (parental); 10μΜ, 72 h): 24.0%; cell viability (kinase inhibitor library screening) ([1]; 1μΜ, 72 h): 89.2%; cell viability (kinase inhibitor library screening) ([1]; 10μΜ, 72 h): 8.3%; cell viability (kinase inhibitor library screening) ([2]; 1μΜ, 72 h): 72.2%; cell viability (kinase inhibitor library screening) ([2]; 10μΜ, 72 h): 3.8%; cell viability (kinase inhibitor library screening) (A375 cells (parental); 10μΜ, 72 h): 8.5%; cell viability (kinase inhibitor library screening) (A375 cells (parental); 1μΜ, 72 h): 32.3%; cell viability (kinase inhibitor library screening) ([3]; 1μΜ, 72 h): 35.1%; cell viability (kinase inhibitor library screening) ([3]; 10μΜ, 72 h): 3.7%; cell viability (kinase inhibitor library screening) ([4]; 1μΜ, 72 h): 40.9%; cell viability (kinase inhibitor library screening) ([4]; 10μΜ, 72 h): 12.4%; cell viability (kinase inhibitor library screening) (IGR37 cells (parental); 1μΜ, 72 h): 88.9%; cell viability (kinase inhibitor library screening) (IGR37 cells (parental); 10μΜ, 72 h): 37.6%; cell viability (kinase inhibitor library screening) ([5]; 1μΜ, 72 h): 91.2%; cell viability (kinase inhibitor library screening) ([5]; 10μΜ, 72 h): 10.4%; cell viability (kinase inhibitor library screening) ([6]; 1μΜ, 72 h): 69.3%; cell viability (kinase inhibitor library screening) ([6]; 10μΜ, 72 h): 2.0%

Which results are given for CO[C@H]1C[C@@H]2CC[C@@H](C)[C@@](O)(O2)C(=O)C(=O)N2CCCC[C@H]2C(=O)O[C@H]([C@H](C)C[C@@H]2CC[C@@H](OC(=O)C(C)(CO)CO)[C@H](OC)C2)CC(=O)[C@H](C)/C=C(\C)[C@@H](O)[C@@H](OC)C(=O)[C@H](C)C[C@H](C)/C=C/C=C/C=C/1C [Temsirolimus (Torisel)]?
Cell viability in kinase inhibitor library screening, 501Mel Parental, 1μΜ (501Mel cells (parental); 1μΜ, 72 h, in %): 83.5; Cell viability in kinase inhibitor library screening, 501Mel Parental, 10μΜ (501Mel cells (parental); 10μΜ, 72 h, in %): 79.5; Cell viability in kinase inhibitor library screening, 501Mel GP, 1μΜ ([1]; 1μΜ, 72 h, in %): 69.5; Cell viability in kinase inhibitor library screening, 501Mel GP, 10μΜ ([1]; 10μΜ, 72 h, in %): 60.0; Cell viability in kinase inhibitor library screening, 501Mel XP, 1μΜ ([2]; 1μΜ, 72 h, in %): 55.1; Cell viability in kinase inhibitor library screening, 501Mel XP, 10μΜ ([2]; 10μΜ, 72 h, in %): 41.2; Cell viability in kinase inhibitor library screening, A375 Parental, 10μΜ (A375 cells (parental); 10μΜ, 72 h): 73.5; Cell viability in kinase inhibitor library screening, A375 Parental, 1μΜ (A375 cells (parental); 1μΜ, 72 h): 78.4; Cell viability in kinase inhibitor library screening, A375 GP, 1μΜ ([3]; 1μΜ, 72 h): 81.2; Cell viability in kinase inhibitor library screening, A375 GP, 10μΜ ([3]; 10μΜ, 72 h): 73.7; Cell viability in kinase inhibitor library screening, A375 XP, 1μΜ ([4]; 1μΜ, 72 h): 81.1; Cell viability in kinase inhibitor library screening, A375 XP, 10μΜ ([4]; 10μΜ, 72 h): 78.8; Cell viability in kinase inhibitor library screening, IGR37 Parental, 1μΜ (IGR37 cells (parental); 1μΜ, 72 h, in %): 79.0; Cell viability in kinase inhibitor library screening, IGR37 Parental, 10μΜ (IGR37 cells (parental); 10μΜ, 72 h, in %): 82.7; Cell viability in kinase inhibitor library screening, IGR37 GP, 10μΜ ([5]; 10μΜ, 72 h): 41.7%; Cell viability in kinase inhibitor library screening, IGR37 GP, 1μΜ ([5]; 1μΜ, 72 h, in %): 91.9; Cell viability in kinase inhibitor library screening, IGR37 XP, 10μΜ ([6]; 10μΜ, 72 h): 5.5%; Cell viability in kinase inhibitor library screening, IGR37 XP, 1μΜ ([6]; 1μΜ, 72 h, in %): 96.0

How did the “cell viability, 501Mel Parental, 1μΜ” value (501Mel cells (parental); 1μΜ, 72 h, in %) turn out when COc1cc2ncnc(Nc3cccc(Cl)c3)c2cc1OC [AG-1478 (Tyrphostin AG-1478)] was run?
Its value is 96.5.

And the “cell viability, 501Mel Parental, 10μΜ” value (501Mel cells (parental); 10μΜ, 72 h, in %)?
The value was 70.7.

What about the “cell viability, 501Mel GP, 1μΜ” value ([1]; 1μΜ, 72 h, in %) of the same compound?
The value was 102.7.

And the “cell viability, 501Mel GP, 10μΜ” value ([1]; 10μΜ, 72 h, in %)?
Its value is 55.4.

And the “cell viability, 501Mel XP, 1μΜ” value ([2]; 1μΜ, 72 h, in %)?
The value was 86.2.

And the “cell viability, 501Mel XP, 10μΜ” value ([2]; 10μΜ, 72 h, in %)?
Its value is 48.5.

What about the “cell viability, A375 Parental, 10μΜ” value (A375 cells (parental); 10μΜ, 72 h, in %) of the same compound?
Its value is 94.0.

And the “cell viability, A375 GP, 1μΜ” value ([3]; 1μΜ, 72 h, in %)?
The value was 91.6.

And the “cell viability, A375 GP, 10μΜ” value ([3]; 10μΜ, 72 h, in %)?
Its value is 90.4.

What about the “cell viability, A375 XP, 1μΜ” value ([4]; 1μΜ, 72 h, in %) of the same compound?
The value was 99.5.

And the “cell viability, A375 XP, 10μΜ” value ([4]; 10μΜ, 72 h, in %)?
Its value is 98.9.

And the “cell viability, IGR37 Parental, 1μΜ” value (IGR37 cells (parental); 1μΜ, 72 h, in %)?
The value was 96.0.

And the “cell viability, IGR37 Parental, 10μΜ” value (IGR37 cells (parental); 10μΜ, 72 h, in %)?
The value was 98.8.

And the cell viability, IGR37 GP, 10μΜ ([5]; 10μΜ, 72 h)?
Its cell viability, IGR37 GP, 10μΜ is 86.3%.

And the “cell viability, IGR37 GP, 1μΜ” value ([5]; 1μΜ, 72 h, in %)?
The value was 88.5.

And the cell viability, IGR37 XP, 10μΜ ([6]; 10μΜ, 72 h)?
Its cell viability, IGR37 XP, 10μΜ is 46.3%.

What about the “cell viability, IGR37 XP, 1μΜ” value ([6]; 1μΜ, 72 h, in %) of the same compound?
The value was 76.6.

With CN(C)C1CCN(C(=O)c2ccc(NC(=O)Nc3ccc(-c4nc(N5CCOCC5)nc(N5CCOCC5)n4)cc3)cc2)CC1 [PF-05212384 (PKI-587)] as the compound, how does the “Cell viability in kinase inhibitor library screening, 501Mel Parental, 1μΜ” value (501Mel cells (parental); 1μΜ, 72 h, in %) read?
The value was 22.6.

And the “Cell viability in kinase inhibitor library screening, 501Mel Parental, 10μΜ” value (501Mel cells (parental); 10μΜ, 72 h, in %)?
The value was 1.3.

And the “Cell viability in kinase inhibitor library screening, 501Mel GP, 1μΜ” value ([1]; 1μΜ, 72 h, in %)?
The value was 29.3.

And the “Cell viability in kinase inhibitor library screening, 501Mel GP, 10μΜ” value ([1]; 10μΜ, 72 h, in %)?
Its value is 2.2.

And the “Cell viability in kinase inhibitor library screening, 501Mel XP, 1μΜ” value ([2]; 1μΜ, 72 h, in %)?
The value was 53.1.

What about the “Cell viability in kinase inhibitor library screening, 501Mel XP, 10μΜ” value ([2]; 10μΜ, 72 h, in %) of the same compound?
Its value is 0.9.

What about the “Cell viability in kinase inhibitor library screening, A375 Parental, 10μΜ” value (A375 cells (parental); 10μΜ, 72 h) of the same compound?
Its value is 13.9.

What about the “Cell viability in kinase inhibitor library screening, A375 Parental, 1μΜ” value (A375 cells (parental); 1μΜ, 72 h) of the same compound?
Its value is 35.9.

And the “Cell viability in kinase inhibitor library screening, A375 GP, 1μΜ” value ([3]; 1μΜ, 72 h)?
The value was 34.6.

And the “Cell viability in kinase inhibitor library screening, A375 GP, 10μΜ” value ([3]; 10μΜ, 72 h)?
Its value is 13.9.

What about the “Cell viability in kinase inhibitor library screening, A375 XP, 1μΜ” value ([4]; 1μΜ, 72 h) of the same compound?
Its value is 33.4.

What about the “Cell viability in kinase inhibitor library screening, A375 XP, 10μΜ” value ([4]; 10μΜ, 72 h) of the same compound?
The value was 11.6.

And the “Cell viability in kinase inhibitor library screening, IGR37 Parental, 1μΜ” value (IGR37 cells (parental); 1μΜ, 72 h, in %)?
The value was 35.0.

And the “Cell viability in kinase inhibitor library screening, IGR37 Parental, 10μΜ” value (IGR37 cells (parental); 10μΜ, 72 h, in %)?
The value was 14.2.

And the Cell viability in kinase inhibitor library screening, IGR37 GP, 10μΜ ([5]; 10μΜ, 72 h)?
Its Cell viability in kinase inhibitor library screening, IGR37 GP, 10μΜ is 6.8%.

What about the “Cell viability in kinase inhibitor library screening, IGR37 GP, 1μΜ” value ([5]; 1μΜ, 72 h, in %) of the same compound?
The value was 39.4.

What about the Cell viability in kinase inhibitor library screening, IGR37 XP, 10μΜ ([6]; 10μΜ, 72 h) of the same compound?
The Cell viability in kinase inhibitor library screening, IGR37 XP, 10μΜ was 3%.

And the “Cell viability in kinase inhibitor library screening, IGR37 XP, 1μΜ” value ([6]; 1μΜ, 72 h, in %)?
The value was 33.0.

What does the source list for Cc1cn(-c2cc(NC(=O)c3ccc(C)c(Nc4nccc(-c5cccnc5)n4)c3)cc(C(F)(F)F)c2)cn1 [Nilotinib (AMN-107)]?
cell viability (kinase inhibitor library screening) (501Mel cells (parental); 1μΜ, 72 h): 89.8%; cell viability (kinase inhibitor library screening) (501Mel cells (parental); 10μΜ, 72 h): 71.1%; cell viability (kinase inhibitor library screening) ([1]; 1μΜ, 72 h): 99.9%; cell viability (kinase inhibitor library screening) ([1]; 10μΜ, 72 h): 74.5%; cell viability (kinase inhibitor library screening) ([2]; 1μΜ, 72 h): 84.0%; cell viability (kinase inhibitor library screening) ([2]; 10μΜ, 72 h): 54.3%; cell viability (kinase inhibitor library screening) (A375 cells (parental); 10μΜ, 72 h): 66.2%; cell viability (kinase inhibitor library screening) (A375 cells (parental); 1μΜ, 72 h): 102.9%; cell viability (kinase inhibitor library screening) ([3]; 1μΜ, 72 h): 96.3%; cell viability (kinase inhibitor library screening) ([3]; 10μΜ, 72 h): 48.3%; cell viability (kinase inhibitor library screening) ([4]; 1μΜ, 72 h): 87.0%; cell viability (kinase inhibitor library screening) ([4]; 10μΜ, 72 h): 57.9%; cell viability (kinase inhibitor library screening) (IGR37 cells (parental); 1μΜ, 72 h): 95.3%; cell viability (kinase inhibitor library screening) (IGR37 cells (parental); 10μΜ, 72 h): 73.7%; cell viability (kinase inhibitor library screening) ([5]; 1μΜ, 72 h): 98.8%; cell viability (kinase inhibitor library screening) ([5]; 10μΜ, 72 h): 35.4%; cell viability (kinase inhibitor library screening) ([6]; 1μΜ, 72 h): 100.2%; cell viability (kinase inhibitor library screening) ([6]; 10μΜ, 72 h): 1.4%

What does the source list for COc1cc(Nc2ncc(F)c(Nc3ccc4c(n3)N(COP(=O)([O-])[O-])C(=O)C(C)(C)O4)n2)cc(OC)c1OC.[Na+].[Na+]?
cell viability (kinase inhibitor library screening) (501Mel cells (parental); 10μΜ, in %): 84.1; cell viability (kinase inhibitor library screening) ([1]; 1μΜ, in %): 98.3; cell viability (kinase inhibitor library screening) ([1]; 10μΜ, in %): 70.8; cell viability (kinase inhibitor library screening) ([2]; 1μΜ, in %): 98.8; cell viability (kinase inhibitor library screening) ([2]; 10μΜ, in %): 37.9; cell viability (kinase inhibitor library screening) (A375 cells (parental); 10μΜ, in %): 56.1; cell viability (kinase inhibitor library screening) ([3]; 1μΜ, in %): 95.3; cell viability (kinase inhibitor library screening) ([3]; 10μΜ, in %): 57.6; cell viability (kinase inhibitor library screening) ([4]; 10μΜ, in %): 70.0; cell viability (kinase inhibitor library screening) (IGR37 cells (parental); 1μΜ, in %): 103.8; cell viability (kinase inhibitor library screening) (IGR37 cells (parental); 10μΜ, in %): 87.6; cell viability (kinase inhibitor library screening) ([5]; 1μΜ, in %): 89.3; cell viability (kinase inhibitor library screening) ([5]; 10μΜ, in %): 37.8; cell viability (kinase inhibitor library screening) ([6]; 1μΜ, in %): 94.1; cell viability (kinase inhibitor library screening) ([6]; 10μΜ, in %): 20.4
